How the values were obtained:
[1] = human, in vivo
[2] = Accelerated romidepsin dosing, clinical trial experience (unit doses given intravenously over about one hour or less)
[3] = Earlier clinical investigations of romidepsin: observed toxicities and deaths; details: early development; out of more than 450 patients
[4] = patient five, (Breast Cancer), 8 mg/m^2
[5] = patient four, (Breast Cancer), 8 mg/m^2
[6] = patient two, (Multiple Myeloma), 10 mg/m^2
[7] = patient, (Multiple Myeloma), 8 mg/m^2

C/C=C1\NC(=O)[C@H]2CSSCC/C=C/[C@H](CC(=O)N[C@H](C(C)C)C(=O)N2)OC(=O)[C@H](C(C)C)NC1=O [romidepsin, (1S,4S,10S,16E,21R)-7-[(2Z)-ethylidene]-4,21-diisopropyl-2-oxa-12,13-dithia-5,8,20,23-tetraazabicyclo[8.7.6]tricos-16-ene-3,6,9,19,22-pentanone]
serial serum troponin levels and multiple gated acquisition (MUGA) scans [1]: consistently normal
severity of observed toxicities [1]: mild to moderate
electrocardiogram findings, lab abnormalities, adverse events, and serious adverse events overall ([2]; 15 patients on accelerated dosing regimens): consistent with the results seen in prior clinical trials utilizing romidepsin
Clinically Significant Lab Abnormalities [2, 4]: None
Related SAEs [2, 4]: None
ECG Findings (Machine Alerts) ([2]; patient five, (Breast Cancer), 8 mg/m^2, full wrapped cell: Nonspecific T wave changes, low QRS voltages, tachycardia, possible anterior infarction, left atrial abnormality): Nonspecific T wave
Related Adverse Events ([2]; patient five, GPI-06-0005 (Breast Cancer), 8 mg/m^2 on Days 1, 8, and 15 of Cycle 2 and beyond, 6 accelerated doses, full wrapped cell: Fatigue, dysphagia, dizziness): Fatigue,
Clinically Significant Lab Abnormalities [2, 5]: None
Related SAEs [2, 5]: None
ECG Findings (Machine Alerts) ([2]; patient four, (Breast Cancer), 8 mg/m^2, full wrapped cell: Left anterior fascicular block, low QRS voltages, nonspecific T wave changes, possible left ventricular hypertrophy, possible anterior infarction, tachycardia, sinus arrhythmia): Left anterior
Related Adverse Events ([2]; patient four, GPI-06-0005 (Breast Cancer), 8 mg/m^2 on Days 1, 8, and 15 of Cycle 2 and beyond, 5 accelerated doses, full wrapped cell: Fatigue, vomiting, anemia, anorexia): Fatigue,
Related SAEs ([2]; patient one, (Multiple Myeloma), 10 mg/m^2): None
ECG Findings (Machine Alerts) ([2]; patient one, (Multiple Myeloma), 10 mg/m^2, full wrapped cell: Sinus tachycardia, nonspecific ST changes, low QRS voltages, junctional depression prior to baseline): Sinus tachycardia,
Clinically Significant Lab Abnormalities ([2]; patient one, (Multiple Myeloma), 10 mg/m^2, full wrapped cell: Thrombocytopenia, anemia, neutropenia, increased serum creatinine, hyperpcalcemia): Thrombocytopenia,
Related Adverse Events ([2]; patient one, GPI-08-0006 (Multiple Myeloma), 10 mg/m^2 on Days 1, 8, and 15 of Cycle 1 and beyond, 2 accelerated doses, full wrapped cell: Flushing, cold feeling, nausea, vomiting, back pain, canker sore, fatigue, UTI, hypokalemia, hypophosphatemia): Flushing,
Related SAEs ([2]; patient three, (Multiple Myeloma), 10 mg/m^2): None
ECG Findings (Machine Alerts) ([2]; patient three, (Multiple Myeloma), 10 mg/m^2, full wrapped cell: Nonspecific T waves changes possibly due to myocardial ischemia, results consistent with baseline ECGs): Nonspecific T waves
Clinically Significant Lab Abnormalities ([2]; patient three, (Multiple Myeloma), 10 mg/m^2, full wrapped cell: Thrombocytopenia, anemia, neutropenia): Thrombocytopenia,
Related Adverse Events ([2]; patient three, GPI-08-0006 (Multiple Myeloma), 10 mg/m^2 on Days 1, 8, and 15 of Cycle 1 and beyond, 13 accelerated doses, full wrapped cell: Nausea, vomiting, flushing, constipation, headache, body aches, abdominal pain, diarrhea, bloating, vein erythema): Nausea,
QTC (ECG machine alert) [2, 6]: close to 450
Related SAEs [2, 6]: None
ECG Findings (Machine Alerts) ([2]; patient two, (Multiple Myeloma), 10 mg/m^2, full wrapped cell: T wave changes, conduction defect of right bundle branch block, low QRS spatial velocity, QTC close to 450): T wave changes,
Clinically Significant Lab Abnormalities ([2]; patient two, (Multiple Myeloma), 10 mg/m^2, full wrapped cell: Thrombocytopenia, anemia, neutropenia, increased serum creatinine): Thrombocytopenia,
Related Adverse Events ([2]; patient two, GPI-08-0006 (Multiple Myeloma), 10 mg/m^2 on Days 1, 8, and 15 of Cycle 1 and beyond, 2 accelerated doses, full wrapped cell: Knee pain, headache, skin crawling, cold feet, malaise, bowel urgency, nausea, vomiting): Knee pain,
Adverse Events reported directly after infusion ([2]; patient, 78 kg, 26 mg on days 1, 8, and 15 of 28 day cycle, accelerated dose Day 15 of cycle 8, full wrapped cell: Nausea, vomiting and diarrhoea, heamaturia): Nausea,
LAB ([2]; patient, 78 kg, 26 mg, accelerated dose Day 15 of cycle 8, full wrapped cell: Hypocalcaemia noted): Hypocalcaemia
ECG ([2]; patient, 78 kg, 26 mg, accelerated dose Day 15 of cycle 8, full wrapped cell: Post infusion ECG - peaked T waves laterally and subtle ST depression laterally but otherwise normal ECG next day was normal): Post infusion
Adverse Events reported directly after infusion ([2]; patient, 95.8 Kg, 30.5 mg on days 1, 8, and 15 of 28 day cycle, accelerated dose Day 1 of cycle 8): None
lateral ST depression on post infusion ECG ([2]; patient, 95.8 Kg, 30.5 mg, accelerated dose Day 1 of cycle 8, asymptomatic): of 1 mm.
LAB ([2]; patient, 95.8 Kg, 30.5 mg, accelerated dose Day 1 of cycle 8, full wrapped cell: No immediate effect but hypocalcaemia later): No immediate
ECG ([2]; patient, 95.8 Kg, 30.5 mg, accelerated dose Day 1 of cycle 8, full wrapped cell: Post infusion ECG asymptomatic - showed some lateral ST depression of 1 mm. ECG 2 hours later showed improvement): Post infusion
Related SAEs ([2]; patient, 103 Kg, (Multiple Myeloma), 10 mg/m^2): None
ECG Findings (Machine Alerts) ([2]; patient, 103 Kg, (Multiple Myeloma), 10 mg/m^2, full wrapped cell: Nonspecific T wave changes, ST junctional depression): Nonspecific T wave
Clinically Significant Lab Abnormalities ([2]; patient, 103 Kg, (Multiple Myeloma), 10 mg/m^2, full wrapped cell: Thrombocytopenia, anemia, neutropenia, hypoalbuminemia): Thrombocytopenia,
Related Adverse Events ([2]; patient, 103 Kg, GPI-08-0006 (Multiple Myeloma), 10 mg/m^2 on Days 1, 8, and 15 of Cycle 1 and beyond, 4 accelerated doses, full wrapped cell: Nausea, thrombocytopenia, fatigue, vein erythema, vomiting): Nausea,
Adverse Events reported directly after infusion ([2]; patient, 13 mg on days 1, 8, and 15 of 28 day cycle, accelerated dose Day 15 of cycle 2): None
LAB ([2]; patient, 13 mg, accelerated dose Day 15 of cycle 2, full wrapped cell: No abnormalities): No
ECG ([2]; patient, 13 mg, accelerated dose Day 15 of cycle 2, full wrapped cell: Post dose ECGs taken on same day and next day, no abnormalities notes): Post dose
Related SAEs ([2]; patient, (Giant Cell), 12 mg/m^2): None
Clinically Significant Lab Abnormalities ([2]; patient, (Melanoma), 8 mg/m^2): None
Related SAEs ([2]; patient, (Melanoma), 8 mg/m^2): None
ECG Findings (Machine Alerts) ([2]; patient, (Melanoma), 8 mg/m^2, full wrapped cell: Nonspecific T wave changes possibly due to myocardial ischemia, low QRS voltages, sinus tachycardia, possible inferior infarction): Nonspecific T wave
Clinically Significant Lab Abnormalities [2, 7]: None
Related SAEs [2, 7]: None
ECG Findings (Machine Alerts) ([2]; patient, (Multiple Myeloma), 10 mg/m^2, full wrapped cell: T wave inversion, low QRS voltages, reversed R wave progression): T wave inversion,
Clinically Significant Lab Abnormalities ([2]; patient, (Multiple Myeloma), 10 mg/m^2, full wrapped cell: Thrombocytopenia, anemia, neutropenia, hypoalbuminemia, hypokalemia): Thrombocytopenia,
Related SAEs ([2]; patient, (Multiple Myeloma), 10 mg/m^2, full wrapped cell: Vomiting, headache, dehydration): Vomiting,
Clinically Significant Lab Abnormalities ([2]; patient, (NHL), 8 mg/m^2): None
Related SAEs ([2]; patient, (NHL), 8 mg/m^2): None
ECG Findings (Machine Alerts) ([2]; patient, (NHL), 8 mg/m^2, full wrapped cell: Probable normal variant, borderline lateral T wave changes, low QRS voltages): Probable normal
Related SAEs ([2]; patient, (Ovarian Cancer), 12 mg/m^2, full wrapped cell: Atrial fibrillation): Atrial
Related Adverse Events ([2]; patient, GPI-06-0005 (Melanoma), 8 mg/m^2 on Days 1, 8, and 15 of Cycle 2 and beyond, 3 accelerated doses, full wrapped cell: Fatigue, vomiting): Fatigue,
Related Adverse Events ([2]; patient, GPI-06-0005 (NHL), 8 mg/m^2 on Days 1, 8, and 15 of Cycle 2 and beyond, 3 accelerated doses): Fatigue
ECG Findings (Machine Alerts) ([2]; patient, GPI-08-0006 (Multiple Myeloma), 8 mg/m^2 on Days 1, 8, and 15 of Cycle 1 and beyond, 4 accelerated doses): None
Related Adverse Events ([2]; patient, GPI-08-0006 (Multiple Myeloma), 10 mg/m^2 on Days 1, 8, and 15 of Cycle 1 and beyond, 1 accelerated dose, full wrapped cell: Nausea, vomiting, headache, dehydration): Nausea,
rate of serious adverse events vs unit doses administered over about 4 hours ([2]; unit doses over less than about one hour): without increasing the rate of serious adverse events
deaths during clinical investigations [3]: 6
